Test results reported in patent publication US4715994A, “Novel antibacterial agents and potentiators of carbapenem antibiotics” (Merck & Co., Inc., priority 1986, dated 1987).

The compounds below were run against T1, dehydropeptidase-I (renal dipeptidase, EC 3.4.13.11) (Sus scrofa, UniProt P22412) (assay: Renal dehydropeptidase I inhibition (hydrolysis of glycyldehydrophenylalanine)). Settings: not given.
T1 construct: isolated from hog kidneys; from tissue; host or cells: hog kidney, solubilized and lyophilized enzyme preparation
T1 sequence (P22412 17-409): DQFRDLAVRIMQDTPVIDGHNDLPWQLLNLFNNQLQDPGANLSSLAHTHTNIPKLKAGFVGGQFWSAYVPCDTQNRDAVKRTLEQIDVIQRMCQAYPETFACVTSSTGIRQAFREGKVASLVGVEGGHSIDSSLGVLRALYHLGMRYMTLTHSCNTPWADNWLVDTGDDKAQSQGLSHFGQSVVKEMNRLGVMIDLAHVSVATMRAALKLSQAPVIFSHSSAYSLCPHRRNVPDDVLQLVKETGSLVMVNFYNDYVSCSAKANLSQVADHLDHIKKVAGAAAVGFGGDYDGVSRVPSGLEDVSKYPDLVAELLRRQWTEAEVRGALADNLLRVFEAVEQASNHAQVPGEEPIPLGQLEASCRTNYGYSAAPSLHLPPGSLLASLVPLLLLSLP
Type: biochemical, hog
Procedure: This measured the ability of compounds to inhibit hydrolysis of glycyldehydrophenylalanine (GDP) by a solubilized preparation of […] isolated from hog kidneys. The procedure is as follows: to a 1 ml system containing 50 mM "MOPS" (3-(N-morpholino)propanesulfonic acid) buffer, pH 7.1, is added 5 μg of lyophilized enzyme, and the test compound at a final concentration of 0.1 mM. After a five minute incubation at 37° C., GDP is added to a final concentration of 0.05 mM. […] Inhibition of the enzyme is gauged by comparison to a standard run containing no inhibitor and is expressed as the inhibitor binding constant, Ki.
Compound `CC(CP(=O)(O)[C@@H](C)N)C(=O)O` (stereo partly drawn) [D, R2 methyl, R3 H, 1-D-Aminoethyl-(2-carboxy-1-propyl)phosphinic acid] has a Ki of 140 nM. `C=C(CP(=O)(O)[C@@H](C)N)C(=O)O` [D, R5 H] was tested, and the Ki was 230 nM. For `CC(CP(=O)(O)C(C)N)C(=O)O` (stereo not drawn) [DL, R2 methyl, R3 H, 1-Aminoethyl-(2-carboxy-1-propyl)phosphinic acid], the Ki was 10 nM. For `CC(CP(=O)(O)[C@H](C)N)C(=O)O` (stereo partly drawn) [L, R2 methyl, 1-L-Aminoethyl-(2-carboxy-1-propyl)phosphinic acid], the Ki was 10 nM. `C[C@H](N)P(=O)(O)CC(CCCc1ccccc1)C(=O)O` (some centres unmarked) [L, R2 phenylpropyl] gave a Ki of 27 nM. Compound `C=C(CP(=O)(O)[C@H](C)N)C(=O)O` [L, R5 H] has a Ki of 27 nM.

Same assay, conditions: read-out: RENAL DEHYDROPEPTIDASE I INHIBITION Ki
Compound `CCCCCC=C(CP(=O)(O)C(C)N)C(=O)O` (racemic) [DL, R5 n-pentyl, (E, Z isomers), 1-Aminoethyl-(2-carboxy-oct-2-enyl)phosphinic acid (E/Z mixture)] has a Ki of 5.8 nM. `C[C@@H](N)P(=O)(O)CC(CCCc1ccccc1)C(=O)O` (some centres unmarked) [D, R2 phenylpropyl] showed a Ki of 1000 nM. Compound `CC(N)P(=O)(O)CC(CCCc1ccncc1)C(=O)O` (stereo not drawn) [DL, R2 4-pyridylpropyl, 1-Aminoethyl-[2-carboxy-5-(4-pyridyl)-1-n-pentyl]-phosphinic acid] has a Ki of 12 nM. With `CC(N)P(=O)(O)C/C(=C/CCc1ccccc1)C(=O)O` (stereo not drawn) [DL, R5 phenethyl, E] the Ki was 7 nM. For `CC(N)P(=O)(O)C/C(=C\CCc1ccccc1)C(=O)O` (stereo not drawn) [DL, R5 phenethyl, Z, 1-Aminoethyl-(2-carboxy-5-phenyloct-2-enyl)phosphinic acid (E and Z isomers)], the Ki was 16 nM.
